Measured values from patent publication US20050038044A1, “Use of propionyl-carnitine or one of its pharmacologically acceptable salts for the preparation of a medicine for the treatment of la peyronie's disease” (priority 2001, published 2005).

Assays:
[1] = system: La Peyronie's disease in the early stages; conditions: oral treatment; acute and early chronic stages; cited from earlier work
[2] = system: induratio penis plastica at an advanced chronic stage; assay: Example 6: oral propionyl L-carnitine versus oral acetyl L-carnitine, each plus intraplaque verapamil; format: in vivo, human
Description: 20 subjects (mean age 48, range 40-61) with induratio penis plastica at an advanced chronic stage were randomised to two groups of 10 patients each. The first group was submitted to therapy with oral propionyl L-carnitine (PLC) 1×2 g/day 3 months and intraplaque verapamil 10 mg (10 infiltrations, 1 a week), while the second group was submitted to therapy with oral acetyl L-carnitine (ALC) 1×2 g/day for 3 months+intraplaque verapamil 10 mg (10 infiltrations, 1 a week). The variables measured were plaque area by dynamic colour Doppler penile ultrasonography. In view of the limited number of subjects in the sample it was not possible to carry out any analysis of other data; in any event, the size of the plaque is the most important variable when monitoring La Peyronie's disease, since all the other symptoms depend on the extent of the plaque (Belgrano, ibid.).
The results are presented in Table 14, where the data are expressed as mean±standard deviation (S.D.).

[3] = system: chemically induced inflammation of both the skin and the arteries; conditions: rats; cited from earlier work
[4] = system: induratio penis plastica in the chronic stage; assay: Example 3: intraplaque triamcinolone acetonide versus intraplaque propionyl L-carnitine; format: in vivo, human
Description: (§1) The examples are based on a limited number of patients and therefore the analysis of the results was carried out only with regard to the fundamental characteristics of the disease, namely plaque area in mm^2 (as measured by means of dynamic colour Doppler ultrasonography) and curvature of the artificially erect penis induced by intracavernous injection of 20 μg of prostaglandin E1.
In this case […] the study population consisted of 34 patients (mean age 50, range 44-63) with induratio penis plastica in the chronic stage, who presented an irremediable intolerance to intraplaque verapamil.
17 were submitted to intraplaque infiltrations with propionyl L-carnitine 300 mg, 1 infiltration per week for 10 weeks, and 17 to intraplaque infiltrations with triamcinolone acetonide 40 mg (Kenacort® Squibb), 1 infiltration per week for 10 weeks. The variables measured were plaque area in mm^2 by dynamic colour Doppler ultrasonography and the curvature of the artificially erect penis in degrees.
The results are presented in Table 3, where the data are expressed as mean±standard deviation (S.D.).

[5] = system: induratio penis plastica in the early chronic stage; assay: Example 2: oral tamoxifen versus intramuscular propionyl L-carnitine, randomised patients; format: in vivo, human
Description: as §1
30 subjects (mean age 50, range 42-63) with induratio penis plastica in the early chronic stage were randomised to two groups of 15 patients each. The first group was submitted to therapy with intramuscular propionyl L-carnitine 300×2 mg/day for 3 months, and the second group to therapy with oral tamoxifen 20×2 mg/day. The variables measured were plaque area (in all subjects) and penile curvature, which was present in 12 subjects per group. […] Intraplaque verapamil was not used in these patients.
The results are presented in Table 2, where the data are expressed as mean±standard deviation (S.D.).

[6] = system: advanced La Peyronie's disease; assay: Example 4: randomised double-blind study, intraplaque verapamil plus oral propionyl L-carnitine or tamoxifen; format: in vivo, human; conditions: curvature, plaque area, I.I.E.F. 15 score, EDV, RI
Description: The study was conducted according to a randomised double-blind protocol. […] The data were collected 6 months after the end of therapy when the initial history taking and semeiological examination were repeated. […] I.I.E.F. 15 score; • V. Peak systolic velocity (PSV) (cm/sec), end-diastolic velocity (EDV) (cm/sec) and the resistivity index (RI) of the right and left cavernous arteries using dynamic Doppler ultrasonography; • VI. […] Need for penis straightening surgery and/or for straightening and a prosthesis, the results being classified as presence or absence of any such need; • VIII. Side effects classified as presence or absence of side effects.

[7] = system: induratio penis plastica (La Peyronie's disease) at the chronic stage; assay: Example 1: oral tamoxifen versus intravenous propionyl L-carnitine, randomised patients; format: in vivo, human
Description: as §1
40 subjects (mean age 52, range 44-61) with induratio penis plastica (La Peyronie's disease) at the chronic stage were randomised […] intravenous propionyl L-carnitine 300×2 mg/day for 3 months, and the second group to therapy with oral tamoxifen 20×2 mg/day. The variables measured were plaque area by means of dynamic colour Doppler ultrasonography and penile curvature, which was present in 16 patients per group. […] Intraplaque verapamil was not used in these patients.
The results are presented in Table 1, where the data are expressed as mean±standard deviation (S.D.).

[8] = after therapy, oral 1×2 g/day for 3 months + intraplaque verapamil 10 mg (10 infiltrations, 1 a week)
[9] = after therapy, intraplaque PLC 300 mg or triamcinolone acetonide 40 mg, 1 infiltration per week for 10 weeks
[10] = after therapy, PLC intramuscular 300×2 mg/day, tamoxifen oral 20×2 mg/day, 3 months
[11] = before therapy, 12 subjects per group
[12] = after therapy, PLC intravenous 300×2 mg/day, tamoxifen oral 20×2 mg/day, 3 months
[13] = before therapy, artificially erect penis, 16 patients per group

Row | Structure (SMILES) | Plaque area [2, 8] [mm^2] | Plaque area ([2]; before therapy, mean) | Protection against chemically induced inflammation, in words [3] | Curvature [4, 9] [degrees] | Plaque area [4, 9] [mm^2] | Curvature ([4]; before therapy) [degrees] | Plaque area ([4]; before therapy, mean) [mm^2] | Curvature [5, 10] [degrees] | Plaque area [5, 10] [mm^2] | Curvature [5, 11] [degrees] | Plaque area ([5]; before therapy, mean) [mm^2] | Curvature [7, 12] [degrees] | Plaque area [7, 12] [mm^2] | Curvature [7, 13] [degrees] | Plaque area ([7]; before therapy, mean) [mm^2] | also measured
1 | CC(=O)O[C@H](CC(=O)[O-])C[N+](C)(C)C [ALC, acetyl L-carnitine, reference compound] | 11.8 | 16.3 mm^2 | not being shared |  |  |  |  |  |  |  |  |  |  |  |  | Activity in the treatment of La Peyronie's disease, in words [1]: significantly more active than tamoxifen
2 | C[N+](C)(C)C[C@H](O)CC(=O)[O-] [L-carnitine] |  |  | not being shared |  |  |  |  |  |  |  |  |  |  |  |  | 
3 | CCC(=O)O[C@H](CC(=O)[O-])C[N+](C)(C)C [PLC, propionyl L-carnitine] | 7.9 | 16.4 + mm^2 | capable of affording protection | 14.77 | 15.47 | 20.38 | 26.65 | 13.00 | 6.47 | 17.75 | 11.1 | 20.06 | 19.2 | 25.31 | 25.6 | Activity on plaque area and curvature, in words ([4]; intraplaque PLC compared with intraplaque triamcinolone acetonide): significantly more active than triamcinolone acetonide; Reduction of plaque area and curvature of the artificially erect penis, in words ([5]; intramuscular PLC compared with oral tamoxifen): significantly greater extent than tamoxifen; Reduction of plaque area, in words ([2]; PLC plus intraplaque verapamil compared with ALC plus intraplaque verapamil): significantly greater extent than acetyl L-carnitine plus intraplaque verapamil; Activity on the variables characterising the disease, in words [6]: significantly more active than combined tamoxifen and verapamil; Reduction of plaque area and curvature of the artificially erect penis, in words ([7]; intravenous PLC compared with oral tamoxifen): significantly greater extent than tamoxifen
4 | CC/C(=C(\c1ccccc1)c1ccc(OCCN(C)C)cc1)c1ccccc1 [Tamoxifen, tamoxifen, reference compound] |  |  |  |  |  |  |  | 16.58 | 9.07 | 18.08 | 11.6 | 23.06 | 25.2 | 24.31 | 26.8 | 
5 | CC1(C)O[C@@H]2C[C@H]3[C@@H]4CCC5=CC(=O)C=C[C@]5(C)[C@@]4(F)[C@@H](O)C[C@]3(C)[C@]2(C(=O)CO)O1 [Triamcinolone, triamcinolone acetonide, reference compound] |  |  |  | 23.15 | 25.35 | 22.69 | 25.23 |  |  |  |  |  |  |  |  | 
